In patent US20100022457A1 (Bristol-Myers Squibb Company, priority 2006, published 2010):
Where a SMILES comes first, the peptide text is derived from it. [ ]: non-standard residue; d: D form. Ala(6-(2-MePh)pyridin-3-yl) = Cc1ccccc1-c1ccc(C[C@H](N)C(=O)O)cn1; Bip(2'-Et-4'-OMe) = CCc1cc(OC)ccc1-c1ccc(C[C@H](N)C(=O)O)cc1; αMePhe(2-F) = C[C@](N)(Cc1ccccc1F)C(=O)O; Aib = CC(C)(N)C(=O)O

Test: Solubility of the compound of SEQ ID NO:9 in the presence of Zn(II) / Zn adduct
Assay type: physicochemical
Conditions: pH 6.8, 50 mM phosphate buffer
Method: The concentration of the compound of SEQ ID NO:9 was analyzed by a Waters HPLC system (Waters 2690 Separations Module and Waters 996 Photodiode Array Detector). A gradient method was used where solvent A is 0.05% trifluoroacetic acid (TFA, Sigma) in water, and solvent B is 0.05% TFA in acetone nitrile (ACN, Sigma). Light at a wavelength of 220 nm was used to detect the absorption of the compound of SEQ ID NO:9.
Once the Zn/Compound of SEQ ID NO:9 adduct was formed, formulation development studies were conducted in order to evaluate the solubility of the compound of SEQ ID NO:9 in the presence of Zn(II). An excess amount of the compound of SEQ ID NO:9 was suspended in pH 6.8, 50 mM phosphate buffer. The suspension was then placed on an orbital shaker (Model, 100 RPM) at ambient temperature for 12 hours. The suspension was then centrifuged (Model, speed) and the saturated the clear supernatant of the compound of SEQ ID NO:9 was collected into 10 ml centrifuge tubes. A predetermined amount of zinc acetate solution (50 mM, pH 6.8 phosphate buffer) was added into the saturated solution and then precipitated. The concentration of the compound of SEQ ID NO:9 in solution was obtained by centrifuging the suspension and analyzing the clear supernatants by HPLC. […]

- solubility at 12 h (read-out: concentration of saturated solution (solubility)): 17 µg/mL
Structure (SMILES): CCc1cc(OC)ccc1-c1ccc(C[C@H](NC(=O)[C@H](CC(=O)O)NC(=O)[C@H](CO)NC(=O)[C@@H](NC(=O)[C@](C)(Cc2ccccc2F)NC(=O)[C@@H](NC(=O)CNC(=O)[C@H](CCC(=O)O)NC(=O)C(C)(C)NC(=O)[C@@H](N)Cc2c[nH]cn2)[C@@H](C)O)[C@@H](C)O)C(=O)N[C@@H](Cc2ccc(-c3ccccc3C)nc2)C(N)=O)cc1 [SEQ ID NO: 9] (H-H[Aib]EGT[αMePhe(2-F)]TSD[Bip(2'-Et-4'-OMe)][Ala(6-(2-MePh)pyridin-3-yl)]-NH2)
- apparent solubility with addition of Zn (II): continued to decrease until below the detection limit of HPLC
